Data reported in US20220144752A1, “WATER-SOLUBLE NAPHTHOQUINONE DERIVATIVE COMPOSITION AND METHOD FOR PRODUCING SAME, WATER-SOLUBLE COMPOSITION FOR CONTROLLING HARMFUL ALGAE, METHOD FOR CONTROLLING LARGE-SCALE HARMFUL ALGAE, AND AUTOMATION SYSTEM FOR AI-MONITORING, REMOVING, AND PREVENTING LARGE-SCALE HARMFUL ALGAE” (priority 2019, published 2022).
Counter-ions that a name gives are not always drawn.

How the values were obtained:
[1] = system: Synedra; assay: Algal effect experiment (algal activity by cell counting); format: cell-based, synedra sp.; conditions: 1 μM, second day; cell growth observed again afterwards
Experimental: (§1) The harmful algae algal effect at various inoculation concentrations of the compounds according to an example of the present disclosure was measured. To this end, freshwater harmful algae as treated group include blue-green algae, cyanobacteria microcystis aeruginosa, dolichospermum circinale, aphanizomenon sp., and pseudoanabaena sp., diatoms, stephanodiscus hantzschii, and synedra sp., and green algae, scenedesmus sp., and seawater harmful algae includes trichodesmium sp., alexandrium tamarens, cochlodinium polykrikoides, prorocentrum minimum, and heterosigma akashiwo which are blue-green algae, and pseudo-nitzschia pungens fungens which is diatoms. […]
(§2) Reviewing the details of the experiment, in the case of freshwater species, 5 mL of each culture line was prepared so that the cell density was 5.0×10^3-9.0×10^4 cells/mL, and in the case of seawater species, was prepared so that the cell density was 1.0×10^2-1.0×10^4 cells/mL. […] Counting of the number of cells was performed through an SR-chamber or a hemocytometer under an upright or inverted microscope, and by counting the number of cells after 24 hours, 48 hours, and 72 hours, the reduction ratio of cells compared to before treatment, that is, algal activity (%) was calculated using the following [Equation 1]. […]
(§3) Based on the above [Formula 1], the algal activity of the compound was expressed as 60% or less, 60 to 80%, 80% or more. […]

[2] = system: aphanizomenon; assay: as above; format: cell-based, aphanizomenon sp.; conditions: concentration of 2 μM or more
Experimental: as §1, §2, §3

[3] = system: dolichospermum; assay: as above; format: cell-based, dolichospermum circinale; conditions: concentration of 1 μM or more
Experimental: as §1, §2, §3

[4] = Solubility in organic solvents; format: physicochemical
Excerpt: Therefore, diethyl ether (Et2O) is recommended for washing.

[5] = system: alexandrium tamarence; assay: Algal effect experiment (algal activity by cell counting); format: cell-based, alexandrium tamarens; conditions: concentration of 1 μM or more
Experimental: as §1, §2, §3

[6] = system: cochlodinium polykrikoides; assay: as above; format: cell-based; conditions: concentration of 1 μM or more
Experimental: (§4) The harmful algae algal effect at various inoculation concentrations of the compounds according to an example of the present disclosure was measured. To this end, freshwater harmful algae as treated group include blue-green algae, cyanobacteria microcystis aeruginosa, dolichospermum circinale, aphanizomenon sp., and pseudoanabaena sp., diatoms, stephanodiscus hantzschii, and synedra sp., and green algae, scenedesmus sp., and seawater harmful algae includes trichodesmium sp., alexandrium tamarens, cochlodinium polykrikoides, prorocentrum minimum, and heterosigma akashiwo which are blue-green algae, and pseudo-nitzschia pungens fungens which is diatoms. The culture conditions are shown in [Table 1] below.
(§5) Reviewing the details of the experiment, in the case of freshwater species, 5 mL of each culture line was prepared so that the cell density was 5.0×10^3-9.0×10^4 cells/mL, and in the case of seawater species, was prepared so that the cell density was 1.0×10^2-1.0×10^4 cells/mL. After preparing each culture, the compounds specified as [Chemical Formula 1] prepared according to Examples were inoculated at various concentrations, and are treated so that the final concentrations were 1, 2, and 6 μM, respectively. Then, the compositions were cultured under the culture conditions of [Table 1], and cultured under continuous light conditions and observed for 72 hours. Counting of the number of cells was performed through an SR-chamber or a hemocytometer under an upright or inverted microscope, and by counting the number of cells after 24 hours, 48 hours, and 72 hours, the reduction ratio of cells compared to before treatment, that is, algal activity (%) was calculated using the following [Equation 1].
(§6) Algal activity (%)=(1−Tt/Ct)×100 [Equation 1]
(§7) In this case, in [Equation 1], T represents the density of cells after treating the compound, C represents the density of cells not treating the compound, and t represents the culture time.
(§8) Based on the above [Formula 1], the algal activity of the compound was expressed as 60% or less, 60 to 80%, 80% or more. When the algal activity reached 80% within 48 hours at any compound concentration, it was determined that there was an effect at a concentration higher than that and the high concentration experiment was stopped.

[7] = system: diatoms; assay: as above; format: cell-based; conditions: 1, 2 and 6 μM, up to 72 hours
Experimental: as §4, §5, §6, §7, §8

[8] = system: green algae; assay: as above; format: cell-based; conditions: 1, 2 and 6 μM, up to 72 hours
Experimental: as §4, §5, §6, §7, §8

[9] = system: heterosigma akashiwo; assay: as above; format: cell-based; conditions: concentration of 2 μM or more
Experimental: as §4, §5, §6, §7, §8

[10] = system: akashiwo sanguinea; assay: as above; format: cell-based; conditions: concentration of 6 μM or more
[11] = system: microcystis; assay: as above; format: cell-based, microcystis aeruginosa; conditions: concentration of 1 μM or more
Experimental: as §1, §2, §3

[12] = system: Scenedesmus; assay: as above; format: cell-based, scenedesmus sp.; conditions: 1, 2 and 6 μM, up to 72 hours
Experimental: as §1, §2, §3

[13] = Biodegradability in on-site stream water (UHPLC-DAD); format: physicochemical; conditions: Jungnangcheon stream water, 6.5 μM input, 20° C.
Experimental: An experiment was performed to evaluate the biodegradability in the water system of the compound of [Chemical Formula 1] according to the example of the present disclosure. First, on-site water from the Jungnangcheon stream in Seoul was collected and sprayed so that the concentration of the substance was 6.5 μM, and then acclimatized to a constant temperature condition of 20° C. The experimental volume was 350 mL, and samples were taken at intervals of 1-3 days, and 5 mL was taken per one time. This sample was filtered with a GF/F filter and stored frozen, and then melted at room temperature for analysis, filtered again with a 0.45 μm nylon filter, and then proceeded under the following analysis conditions. • Equipment: Agilent 1290 Infinity (UHPLC-DAD) • Column: Eclipse Puls-[…] (4.6 mm*100 mm*3.5 μm) • Column temperature: 40° C. • Mobile phase: Isocratic=>A: 0.1% phosphoric acid in D.W, B: ACN=70:30 • Analysis time: 7 min • Flow rate: 1.0 mL/min • Detector: DAD Detector (measurement waveform: 260 nm) • Injection volume: 1 μL

[14] = system: luminescent bacteria (vibrio fischeri); assay: Ecotoxicity test, relative luminescence of luminescent bacteria; format: cell-based; conditions: for relative luminescence of the luminescent bacteria: supernatant of microcystis aeruginosa culture treated at 1 μM
Experimental: In order to investigate the effect of the compound according to an example of the present disclosure, that is, a composition according to [Chemical Formula 1] on the ecosystem, biotoxicity evaluation indicator organisms such as luminescent bacteria (vibrio fischeri) and daphnia (Daphnia magna) was used to evaluate the ecotoxicity.
First, in the case of the luminescent bacteria, an experiment was conducted according to the water pollution process test method, and as a sample for ecotoxicity evaluation, the compound specified in Example 1 was added to the blue-green algae, microcystis aeruginosa (10,488 cells/mL) at a concentration of 1 μM, and then, the supernatant was taken after 24 hours, 48 hours, and 72 hours and the luminescent bacteria were injected. Thereafter, the relative luminescence of the treated group compared to the control group was measured to confirm the luminescence reduction effect, and thus, the toxicity of each sample was evaluated.

Q: With `CCN(CC)CCNC1=CC(=O)c2ccccc2C1=O` [Chemical Formula 1, 2-((2-(diethylamino)ethyl)amino)naphthalene-1,4-dione HCl] as the compound, how does the algal effect [1] read?
A: 70%

Q: And the algae effect [2]?
A: ≥ 80%

Q: What about the “algal effect (killed)” value [3] of the same compound?
A: ≥ 90%

Q: What about the solubility ([4]; 1,4-dioxane) of the same compound?
A: slightly dissolved

Q: What about the solubility ([4]; dimethyl sulfoxide (DMSO)) of the same compound?
A: well dissolved

Q: What about the solubility ([4]; ethanol (EtOH)) of the same compound?
A: slightly dissolved

Q: What about the algal effect [5] of the same compound?
A: more than 90%

Q: And the algal effect [6]?
A: more than 90%

Q: And the algal effect [7]?
A: insignificant

Q: And the algal effect [8]?
A: insignificant

Q: And the algal effect [9]?
A: more than 90%

Q: And the algal effect [10]?
A: more than 80%

Q: And the “algal effect (killed)” value [11]?
A: ≥ 90%

Q: What about the algal effect [12] of the same compound?
A: hardly observed

Q: What about the “concentration of the substance relative to the initial input concentration” value ([13]; 7th day) of the same compound?
A: 70%

Q: What about the “concentration of the substance” value ([13]; until the first 2 days) of the same compound?
A: maintained at the input concentration level

Q: What about the “relative luminance versus control group” value ([14]; sample added at 1 μM) of the same compound?
A: did not differ from that of the control group

Q: What about the “relative luminescence of the luminescent bacteria” value (“relative luminescence” for short) ([14]; after 24 hours) of the same compound?
A: 100%

Q: What about the “relative luminescence” value ([14]; after 48 hours) of the same compound?
A: 100%

Q: And the “relative luminescence” value ([14]; after 72 hours)?
A: 100%
